Paper PMC6934184, “Selective DNA-PKcs inhibition extends the therapeutic index of localized radiotherapy and chemotherapy” (The Journal of Clinical Investigation, 2019)

Target: T1, NUAK1 (ARK5) (Homo sapiens, UniProt O60285)
T1 construct: purchased Thermo Fisher Scientific (Life Technologies) SelectScreen
Assay: SelectScreen Adapta
Format: biochemical
Procedure: The in vitro kinase selectivity of NU5455 was determined using the SelectScreen Broad Assay Panel (Thermo Fisher Scientific) involving activity and binding assays (Supplemental Table 1). […] Class IA PI3Ks were measured using the p85α subunit.
Kinase [ATP] % Assay Kinase [ATP] % Assay Kinase [ATP] % Assay Kinase [ATP] % Assay […]
SNF1LK2 Km app 26.6 Z MINK1 Km app 4.6 Z NUAK1 (ARK5) Km app 1.2 A AMPK (A2/B2/G2) n/a -2.6 L […]
SGK (SGK1) Km app 8.5 Z MAP4K2 (GCK) Km app 2.7 Z TLK2 n/a -0.3 L STK38 (NDR) n/a -5.9 L
MERTK (cMER) Km app 8.3 Z CDK2/cyclin A Km app 2.7 Z TGFBR1 (ALK5) n/a -0.4 L MATK (HYL) Km app -6.3 Z
FYN Km app 8.3 Z EPHA1 Km app 2.7 Z CLK3 Km app -0.5 Z ABL1 E255K Km app -6.6 Z
TEC n/a 8.1 L CDK2/cyclin E1 n/a 2.7 L MAP3K14 (NIK) n/a -0.5 L STK17A (DRAK1) n/a -6.6 L
KIT V654A n/a 8.1 L TESK2 n/a 2.7 L AKT3 (PKB gamma) Km app -0.5 Z JAK2 JH1 JH2 Km app -6.7 Z
ROS1 Km app 8.0 Z SPHK1 Km app 2.7 A MAP3K9 (MLK1) Km app -0.5 Z PRKACB (PRKAC beta) n/a -6.8 L
FGFR3 K650E Km app 7.9 Z AMPK A2/B1/G1 Km app 2.6 Z IKBKB (IKK beta) Km app -0.6 Z PDGFRA (PDGFR alpha) Km app -6.8 Z
RAF1 (cRAF) Y340D Y341D 100 7.9 Z DYRK3 Km app 2.6 Z CAMK2A (CaMKII alpha) Km app -0.6 Z NEK9 Km app -7.2 Z
PI4KA (PI4K alpha) 10 7.8 A CSNK1D (CK1 delta) Km app 2.6 Z PRKCB1 (PKC beta I) Km app -0.7 Z PDK1 Km app -7.3 Z
HIPK2 Km app 7.8 Z ACVR2A n/a 2.5 L TTK n/a -0.7 L RPS6KB1 (p70S6K) Km app -7.8 Z […]

T1 sequence (O60285 whole entry): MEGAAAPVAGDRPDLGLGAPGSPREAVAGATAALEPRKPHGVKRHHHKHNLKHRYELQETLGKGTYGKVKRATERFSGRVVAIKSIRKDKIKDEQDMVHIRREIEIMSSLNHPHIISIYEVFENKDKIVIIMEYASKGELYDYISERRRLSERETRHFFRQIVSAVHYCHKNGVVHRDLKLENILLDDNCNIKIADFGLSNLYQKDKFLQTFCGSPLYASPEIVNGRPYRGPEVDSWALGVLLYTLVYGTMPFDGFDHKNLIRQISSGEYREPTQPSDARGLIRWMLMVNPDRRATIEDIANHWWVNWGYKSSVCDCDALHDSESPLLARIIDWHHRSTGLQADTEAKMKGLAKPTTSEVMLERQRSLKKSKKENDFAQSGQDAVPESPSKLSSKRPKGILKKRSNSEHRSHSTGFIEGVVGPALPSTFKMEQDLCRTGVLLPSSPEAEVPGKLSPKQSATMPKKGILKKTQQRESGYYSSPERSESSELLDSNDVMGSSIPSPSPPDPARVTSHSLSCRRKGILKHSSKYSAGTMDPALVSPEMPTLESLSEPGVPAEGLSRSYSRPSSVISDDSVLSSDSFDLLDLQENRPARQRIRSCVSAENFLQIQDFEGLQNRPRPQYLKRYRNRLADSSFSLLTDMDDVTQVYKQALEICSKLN

## CN(C(=O)CN1CCOCC1)c1ccc2sc3c(-c4cccc5c(=O)cc(N6CC7CCC(C6)O7)oc45)cccc3c2c1 [NU5455]
  inhibition at 1 µM: 1.2%
